Experimental data: patent US20070203159A1, “Purine compounds” (priority 2006, published 2007)
≈ marks a conversion by molar mass, not a printed value.

Assays:
[1] = system: M. tuberculosis Erdman (ATCC 35801); test: 90% and 99% effective concentration in M. tuberculosis infected macrophages; assay type: cell-based; conditions: for EC99 / EC^+99: monolayers of mouse bone marrow macrophages; for EC99: […]% reduction in residual mycobacterial growth after 7 days compared with untreated controls; for EC^+99: reduction in residual mycobacterial growth after 7 days compared with untreated controls
[2] = system: Mycobacterium tuberculosis H37Rv (ATCC 27294); test: Microplate Alamar Blue Assay (MABA): primary screening and MIC determination; assay type: cell-based; conditions: Mycobacterium tuberculosis; retest at lower concentrations in the MABA; read-out: MIC

SMILES	EC90/MIC ([1]; MIC data from Table 1)	EC99 [1] [µg/mL]	EC^+99 [1] [µg/mL]	melting point [°C]	MIC [2] [µg/mL]
COc1ccc(Cn2cnc3c(-c4ccco4)ncnc32)cc1 [Example 33, 6-(2-Furyl)-9-(4-methoxyphenylmethyl)-9H-purine]	>8.01	>12.5	>12.5	175 to 176	1.56 (≈ 5.09 µM)
CSc1ccc(Cn2cnc3c(-c4ccco4)ncnc32)cc1 [Example 42, 6-(2-Furyl)-9-(4-methylthiophenylmethyl)-9H-purine]	–	–	–	157 to 159	6.25 (≈ 19.4 µM)
CN(C)c1ccc(Cn2cnc3c(-c4ccco4)ncnc32)cc1 [Example 43, 9-(4-Dimethylaminophenylmethyl)-6-(2-furyl)-9H-purine]	–	–	–	158 to 160	12.5 (≈ 39.1 µM)
Clc1nc(-c2ccco2)c2ncn(Cc3ccc(Cl)c(Cl)c3)c2n1 [Example 47, 2-Chloro-9-(3,4-dichlorophenylmethyl)-6-(2-furyl)-9H-purine]	–	–	–	191 to 193	6.25 (≈ 16.5 µM)
Clc1cccc(Cn2cnc3c(-c4ccco4)nc(Cl)nc32)c1 [Example 48, 2-Chloro-9-(3-chlorophenylmethyl)-6-(2-furyl)-9H-purine]	–	–	–	196 to 198	3.13 (≈ 9.07 µM)
Fc1ccc(Cn2cnc3c(-c4ccco4)nc(Cl)nc32)cc1 [Example 49, 2-Chloro-9-(4-fluorophenylmethyl)-6-(2-furyl)-9H-purine]	–	–	–	152 to 155	3.13 (≈ 9.52 µM)
COc1ccc(Cn2cnc3c(-c4ccco4)nc(Cl)nc32)cc1 [Example 51, 2-Chloro-6-(2-furyl)-9-(4-methoxyphenylmethyl)-9H-purine]	–	0.67	0.02	–	0.39 (≈ 1.14 µM)
COc1cccc(Cn2cnc3c(-c4ccco4)nc(Cl)nc32)c1 [Example 52, 2-Chloro-6-(2-furyl)-9-(3-methoxyphenylmethyl)-9H-purine]	–	–	–	160 to 161	3.13 (≈ 9.19 µM)
COc1ccc(Cn2cnc3c(-c4ccco4)nc(Cl)nc32)cc1C [Example 53, 2-Chloro-6-(2-furyl)-9-(4-methoxy-3-methylphenylmethyl)-9H-purine]	–	–	–	177 to 179	0.78 (≈ 2.2 µM)
COc1ccc(Cn2cnc3c(-c4ccc(OC)cc4)nc(Cl)nc32)cc1 [Example 54, 2-Chloro-6-(4-methoxyphenyl)-9-(4-methoxyphenylmethyl)-9H-purine]	–	–	–	152 to 154	1.56 (≈ 4.1 µM)
COC(c1ccccc1)n1cnc2c(-c3cccs3)nc(Cl)nc21 (stereo not drawn) [Example 55, 2-Chloro-9-(methoxyphenylmethyl)-6-(2-thienyl)-9H-purine]	–	–	–	183 to 185	0.78 (≈ 2.19 µM)
COc1ccc(Cn2cnc3c(-c4ccco4)nc(SC)nc32)cc1 [Example 68, 6-(2-Furyl)-9-(4-methoxyphenylmethyl)-2-methylthio-9H-purine]	–	–	–	147 to 148	0.78 (≈ 2.21 µM)
COc1ccc(Cn2ccc3c(-c4ccco4)ncnc32)cc1 [Example 109, 4-(2-Furyl)-7-(4-methoxybenzyl)-7H-pyrrolo[2,3-d]pyrimidine]	–	–	–	130 to 131	0.39 (≈ 1.28 µM)
